# Measured values taken from patent US9353152B2, “Induction of the mitochondrial permeability transition” (NewSouth Innovations Pty Limited, priority 2002, dated 2016).
# Like-named read-outs stand apart in the source and are kept apart here.
# Key:
# BAE cells [1] = assay: ATP assay (luciferin/luciferase); type: cell-based, bovine; settings: 150 μM GSAO, 24 h
# Protocol: BAE cells in six-well culture plates were arrested for 24 h in 0.5% serum or left in 10% serum, then treated for 24 h with 0, 60 or 150 μM GSAO. The cells were washed once then resuspended in 0.4 mL PBS containing 0.3% bovine serum albumin. A 50 μl sample of cells was mixed with 50 μL water and 100 μL ATP releasing agent (Sigma) and ATP concentration was measured using a luciferin/luciferase ATP assay mix (Sigma). Light units were converted to ATP concentrations using an ATP standard in place of the 50 μL water. Cell number was counted using a Beckman Coulter Counter and mol of ATP was expressed per million cells.
# BxPC-3 tumours [2] = assay: Primary tumour growth assay; type: in vivo, SCID mice; settings: 10 mg/kg/day s.c., SCID mice, BxPC-3
# Protocol: Female 7 to 9 week old SCID or C57Bl6/J mice were used (Massachusetts General Hospital, Boston, Mass.). Mice were held in groups of 3 to 5 at a 12 hour day and night cycle and were given animal chow and water ad libidum. SCID or C57Bl6/J mice were anaesthetised by inhalation of isoflurane, the dorsal skin shaved and cleaned with ethanol, and a suspension of 2.5×10^6 BxPC-3, HT1080 or LLC cells in 0.2 mL of PBS, or saline for LLC cells, was injected S.C. in the proximal midline. LLC cells were prepared according to O'Reilly et al. (1997). Tumour volume was calculated using the relationship, a·b^2·0.52, where a is the longest and b the shortest diameter.
# BAE cells [3] = type: cell-based, bovine
# BxPC-3 tumours [4] = assay: Immunohistochemistry of tumour sections (CD31, PCNA, TUNEL); type: in vivo, SCID mice; settings: day 31, GSAO- versus GSAA-treated tumours
# Description: Tumours were fixed in Buffered Formalde-Fresh (Fisher Scientific, Fair Lawn, N.J.), embedded in paraffin and 5 μm thick sections were cut and placed on glass slides. Sections were stained with haematoxylin and eosin or for CD31, PCNA (Holmgren et al., 1995) or fragmented DNA (Gavrielli et al., 1992). […] The proliferative index was estimated by the percentage of cells scored under 400× magnification. A minimum of 1000 cells was counted in two separate sections. The apoptotic index was estimated by the percentage of cells scored under 400× magnification. A minimum of 1500 cells was counted in two separate sections.
# MPTP = target: T1, MPTP (Rattus norvegicus, UniProt Q09073); assay: Mitochondria swelling assay (MPT induction, decrease in light scattering at 520 nm); type: biochemical
# T1 construct: Mitochondria were isolated from the livers of ˜250 g male Wistar rats; from tissue; host or cells: rat liver mitochondria (male Wistar rats)
# T1 sequence (Q09073 2-298 limits assumed): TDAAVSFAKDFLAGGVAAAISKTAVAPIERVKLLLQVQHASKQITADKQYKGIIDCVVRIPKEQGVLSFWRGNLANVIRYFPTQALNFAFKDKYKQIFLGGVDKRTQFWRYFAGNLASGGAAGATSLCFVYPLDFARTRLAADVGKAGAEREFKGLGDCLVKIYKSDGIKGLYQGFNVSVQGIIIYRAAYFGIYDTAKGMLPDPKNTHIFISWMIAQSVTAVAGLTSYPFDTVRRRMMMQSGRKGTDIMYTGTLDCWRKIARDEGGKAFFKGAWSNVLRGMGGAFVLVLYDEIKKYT
# [5] = system: HT1080 (human fibrosarcoma); assay: Proliferation arrest and loss of viability (cell number and propidium iodide, flow cytometry); type: cell-based; settings: HT1080, 48 h
# Protocol: To distinguish between the anti-proliferative and pro-apoptotic effects of GSAO, treated cells were stained with propidium iodide (PI) to detect late-apoptotic or dead cells. The total number of cells and the proportion of cells that were PI-positive following 48 h treatment with GSAO were measured by flow cytometry.
# BAE cells [6] = assay: Mitochondrial mass (nonyl acridine orange uptake); type: cell-based, bovine; settings: GSAO treatment 24 h, proliferating and growth-quiescent cells
# Protocol: (§1) For measurements of superoxide levels with dihydroethidine, mitochondrial membrane potential with JC-1, mitochondrial mass with nonyl acridine orange, and apoptosis with annexin V, proliferating or growth-quiescent BAE cells were treated for 24 or 48 h with GSAO in six-well culture plates, then detached with trypsin/EDTA, washed once, and resuspended at 2×10^6 cells per mL in serum-free medium. Cells were then incubated for 15 min at room temperature with dihydroethidine (5 μM, Molecular Probes) or 30 min at room temperature with JC-1 (0.5 μg·mL^−1, Molecular Probes), annexin V-FITC (50 μl·mL^−1) (Pharmingen, La Jolla, Calif., USA), or acridine orange 10-nonyl bromide (5 μM, Molecular Probes). Cells were then washed once, resuspended in 0.5 mL serum-free medium, transferred to ice, and fluorescence was quantitated immediately by flow cytometry.
# BAE cells [7] = assay: Cell viability assay, attached cells (methylene blue), proliferating or growth-quiescent cells; type: cell-based, bovine
# Protocol: BAE or HMEC-1 cells were seeded at a density of 10^4 cells per cell into 96 well plates and allowed to adhere overnight and then treated as indicated.
# BAE cells [8] = assay: Mitochondrial membrane potential (JC-1) and apoptosis (annexin V) by flow cytometry; type: cell-based, bovine; settings: 10% serum, 48 h
# Protocol: as §1
# Rat liver mitochondria = type: biochemical; settings: 100 μM GSAO, 0-60 min
# [9] = system: human pancreatic carcinoma BxPC-3 cells; assay: Cell proliferation and viability assay (MTT); type: cell-based; settings: 10% serum, 48 h; read-out: IC50 for proliferation arrest of BxPC-3 cells
# Protocol: BAE or human pancreatic carcinoma BxPC-3 cells were seeded at a density of 10^3 cells per well into 96 well plates in DMEM containing 10% foetal bovine serum and allowed to adhere for 24 h. Cells were washed and incubated with DMEM containing 10% foetal bovine serum and GSAO or o-GSAO and cultured for a further 48 h. Some BAE cells were arrested for 24 h in medium containing 0.25% serum and cultured for a further 48 h in medium containing 0.25% or 10% serum, in the presence of GSAO or o-GSAO. Viable attached cells were determined using MTT.
structure (smiles),measurement,setting,value
"N[C@@H](CCC(=O)N[C@@H](CSCC(=O)Nc1ccc([As]=O)cc1)C(=O)NCC(=O)O)C(=O)O (some centres unmarked) [GSAO, 4-(N—(S-glutathionylacetyl)amino)-phenylarsenoxide]",cellular ATP levels in proliferating BAE cells,BAE cells [1],reduced ATP levels in proliferating cells to that of growth-quiescent cells
same,inhibition of the rate of tumour growth,BxPC-3 tumours [2],> 90%
same,cellular levels of O2^− versus concentration,BAE cells [3],"increased linearly with GSAO concentration in proliferating, but not growth-quiescent, BAE cells"
same,decrease in H2O2,BAE cells [3],30%
same,increase in the level of O2^−,BAE cells [3],100%
same,proliferative index (PCNA),BxPC-3 tumours [4],the same
same,blood vessel density (CD31),BxPC-3 tumours [4]; p<0.001,significant reduction
same,apoptotic index (TUNEL),BxPC-3 tumours [4]; p=0.05,significant increase
same,half-time for GSAO mediated swelling of the mitochondria,"MPTP; 50-200 μM GSAO, increasing Ca^2+ concentration",reduced by added Ca^2+
same,swelling of isolated rat liver mitochondria,"MPTP; GSAO 25-200 μM, GSAA, GSCA 100 μM, 60 min",triggered swelling
same,IC50,[5]; read-out: Loss of Viability IC50,130 µM
same,IC50,[5]; read-out: Proliferation Arrest IC50,95 µM
same,mitochondrial mass,BAE cells [6],unchanged
same,effect on viability of growth-quiescent BAE cells,BAE cells [7],little effect
same,mitochondrial depolarisation (JC-1) and apoptosis (annexin V binding),BAE cells [8],triggered mitochondrial depolarisation and induced apoptosis
same,release of Cytochrome C into the medium,Rat liver mitochondria,triggered time-dependent release
same,IC50,[9],> 300 µM
